Source: ChEMBL document CHEMBL1201862, “PubChem BioAssay data set” (2004)
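Tested at 5 concentrations; 48 h exposure; 96-well plates; endpoints linearly interpolated, else capped at highest concentration. Here, GI50 denotes the concentration required for 50% inhibition of growth.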 Activity calls are given as the source filed them. Cut-off read from the data, not from the text of the source: active = GI50 up to about 1.1 µM and inactive = higher.

Key:
Test in all cases: NCI anticancer screen, dose series, 48 h
[1] = system: A549
[2] = system: CCRF-CEM
[3] = system: HCT-116
[4] = system: HCT-15
[5] = system: HL-60
[6] = system: HOP-62
[7] = system: HT-29
[8] = system: IGROV-1
[9] = system: K562
[10] = system: KM12
[11] = system: Malme-3M
[12] = system: OVCAR-4
[13] = system: OVCAR-5
[14] = system: RPMI-8226
[15] = system: SF-268
[16] = system: SF-539
[17] = system: SK-MEL-2
[18] = system: SN12C
[19] = system: SNB-19
[20] = system: SNB-75

SMILES | GI50 [1] | GI50 [2] | GI50 [3] | GI50 [4] [µM] | GI50 [5] | GI50 [6] | GI50 [7] | GI50 [8] | GI50 [9] | GI50 [10] | GI50 [11] | GI50 [12] | GI50 [13] | GI50 [14] | GI50 [15] | GI50 [16] | GI50 [17] | GI50 [18] | GI50 [19] | GI50 [20]
COc1nc(SC)nc2c1cnn2C1OC(C(O)CO)C(OC)C1O (stereo not given) | 52.1 µM (inactive) | 58.7 µM (inactive) | 78.2 µM (inactive) | > 83 | 52.7 µM (inactive) | > 100 µM (inactive) | 52.4 µM (inactive) | > 100 µM (inactive) | > 100 µM (inactive) | > 78.9 µM (inactive) | > 100 µM (inactive) | 69.3 µM (inactive) | > 100 µM (inactive) | 63.8 µM (inactive) | > 92.7 µM (inactive) | > 100 µM (inactive) | > 100 µM (inactive) | > 100 µM (inactive) | > 100 µM (inactive) | 48.4 µM (inactive)
c1ccc(CSC2(SCc3ccccc3)CCCC2)cc1 | > 10 µM (inactive) | > 10 µM (inactive) | > 10 µM (inactive) | > 10 | > 10 µM (inactive) | > 10 µM (inactive) | > 10 µM (inactive) | > 10 µM (inactive) | > 10 µM (inactive) | > 10 µM (inactive) | > 10 µM (inactive) | > 10 µM (inactive) | > 10 µM (inactive) | > 10 µM (inactive) | > 10 µM (inactive) | > 10 µM (inactive) | > 10 µM (inactive) | > 10 µM (inactive) | > 10 µM (inactive) | > 10 µM (inactive)
CN(C)C(=S)/N=c1\ssc(=S)n1C | > 100 µM (inactive) | > 100 µM (inactive) | > 100 µM (inactive) | > 100 | > 100 µM (inactive) | > 100 µM (inactive) | > 100 µM (inactive) | > 100 µM (inactive) | > 100 µM (inactive) | > 100 µM (inactive) | > 100 µM (inactive) | > 100 µM (inactive) | > 100 µM (inactive) | > 100 µM (inactive) | > 100 µM (inactive) | > 100 µM (inactive) | > 100 µM (inactive) | > 100 µM (inactive) | > 100 µM (inactive) | > 100 µM (inactive)
COc1ccc(/C(C#N)=C/c2ccc(OC)c(OC)c2)cc1 | > 100 µM (inactive) | > 100 µM (inactive) | > 100 µM (inactive) | 37.2 | > 100 µM (inactive) | > 100 µM (inactive) | > 100 µM (inactive) | > 100 µM (inactive) | > 100 µM (inactive) | > 100 µM (inactive) | > 100 µM (inactive) | 69.8 µM (inactive) | > 100 µM (inactive) | > 100 µM (inactive) | > 100 µM (inactive) | > 100 µM (inactive) | > 100 µM (inactive) | > 100 µM (inactive) | > 100 µM (inactive) | 56.9 µM (inactive)
Nc1n[c-](N)[n+](=O)c(N)c1NCO | > 100 µM (inactive) | > 100 µM (inactive) | > 100 µM (inactive) | > 100 | > 100 µM (inactive) | > 100 µM (inactive) | > 100 µM (inactive) | > 100 µM (inactive) | > 100 µM (inactive) | > 100 µM (inactive) | > 100 µM (inactive) | > 100 µM (inactive) | > 100 µM (inactive) | > 100 µM (inactive) | > 100 µM (inactive) | > 100 µM (inactive) | > 100 µM (inactive) | > 100 µM (inactive) | > 100 µM (inactive) | > 100 µM (inactive)
CC(=O)OCC1OC(n2c3c(c(-c4ccco4)c(C#N)c2=S)CCC3)C(OC(C)=O)C(OC(C)=O)C1OC(C)=O (stereo not given) | > 100 µM (inactive) | 8.09 µM (inactive) | > 100 µM (inactive) | > 100 | 82.8 µM (inactive) | > 100 µM (inactive) | > 100 µM (inactive) | 69.3 µM (inactive) | 21.9 µM (inactive) | > 100 µM (inactive) | > 100 µM (inactive) | 56.8 µM (inactive) | > 100 µM (inactive) | 28.1 µM (inactive) | > 100 µM (inactive) | > 100 µM (inactive) | > 100 µM (inactive) | > 100 µM (inactive) | > 100 µM (inactive) | 23.4 µM (inactive)
CN(C)CCNC(=O)c1cccc2ccc(-c3ccc(F)cc3)nc12 | 3.13 µM (inactive) | 2.86 µM (inactive) | 3.03 µM (inactive) | 3.85 | 2.29 µM (inactive) | 11.7 µM (inactive) | 3.3 µM (inactive) | 4.16 µM (inactive) | 2.93 µM (inactive) | 6.67 µM (inactive) | 4.9 µM (inactive) | 4.38 µM (inactive) | 7.55 µM (inactive) | 3.31 µM (inactive) | 5.27 µM (inactive) | 4.06 µM (inactive) | 9.18 µM (inactive) | 4.85 µM (inactive) | 6.87 µM (inactive) | 6.95 µM (inactive)
CC1(C)CC(=O)C2=C(C1)OC1=C(CC(C)(C)CC1=O)C2c1ccccc1[N+](=O)[O-] (stereo not given) | > 100 µM (inactive) | > 100 µM (inactive) | > 100 µM (inactive) | > 100 | > 100 µM (inactive) | > 100 µM (inactive) | > 100 µM (inactive) | > 100 µM (inactive) | > 100 µM (inactive) | > 100 µM (inactive) | > 100 µM (inactive) | > 100 µM (inactive) | > 100 µM (inactive) | > 100 µM (inactive) | > 100 µM (inactive) | > 100 µM (inactive) | > 100 µM (inactive) | > 100 µM (inactive) | > 100 µM (inactive) | > 100 µM (inactive)
Cc1nc2ccccc2n1C(=O)c1c(F)c(F)c(F)c(F)c1F | 30.4 µM (inactive) | 5.12 µM (inactive) | 4.14 µM (inactive) | 11.2 | 4.49 µM (inactive) | 23.9 µM (inactive) | 4.98 µM (inactive) | 19.1 µM (inactive) | 5.48 µM (inactive) | 3.13 µM (inactive) | 19.8 µM (inactive) | 14.5 µM (inactive) | 19 µM (inactive) | 4.15 µM (inactive) | 27 µM (inactive) | 11.6 µM (inactive) | 7.41 µM (inactive) | 6.01 µM (inactive) | 29.5 µM (inactive) | 25.4 µM (inactive)
C[N+](C)([O-])CCOc1cc2c(c3ccccc13)-c1ccccc1C2=O | 23.3 µM (inactive) | 8.2 µM (inactive) | 6.25 µM (inactive) | 28.2 | 14.3 µM (inactive) | 14.2 µM (inactive) | 7.46 µM (inactive) | 19.1 µM (inactive) | 15.8 µM (inactive) | 13.6 µM (inactive) | 14 µM (inactive) | 3.92 µM (inactive) | 24 µM (inactive) | 12.3 µM (inactive) | 10.9 µM (inactive) | 15.1 µM (inactive) | 18.4 µM (inactive) | 9.08 µM (inactive) | 13.6 µM (inactive) | 17.5 µM (inactive)
